# Patent publication US20120172385A1, “ORTHO SUBSTITUTED PYRIMIDINE COMPOUNDS AS JAK INHIBITORS” (priority 2009, published 2012)
# How the values were obtained:
# [1] = biological target: T1, JAK2 (Homo sapiens, UniProt O60674); assay: Kinobeads assay, JAK2 (dot blot detection); type: binding; conditions: mixed Molt4/Ramos lysate
# T1 construct: endogenous in cells; host or cells: Molt4 (ATCC CRL-1582) and Ramos (ATCC CRL-1596) cell lysate, mixed 1:2
# Description: (§1) The compounds of the present invention as described in the previous examples were tested in a Kinobeads™ assay as described for ZAP-70 (WO-A 2007/137867). Briefly, test compounds (at various concentrations) and the affinity matrix with the immobilized aminopyrido-pyrimidine ligand 24 were added to cell lysate aliquots and allowed to bind to the proteins in the lysate sample. After the incubation time the beads with captured proteins were separated from the lysate. Bound proteins were then eluted and the presence of JAK2 and JAK3 was detected and quantified using specific antibodies in a dot blot procedure and the Odyssey infrared detection system. Dose response curves for individual kinases were generated and IC50 values calculated. Kinobeads™ assays for ZAP-70 (WO-A 2007/137867) and for kinase selectivity profiling (WO-A 2006/134056) have been previously described.
# (§2) The affinity matrix was washed two times with 15 mL of 1×DP buffer containing 0.2% NP40 (IGEPAL® CA-630, Sigma, #I3021) and then resuspended in 1×DP buffer containing 0.2% NP40 (3% beads slurry).
# (§3) 5×DP buffer: 250 mM Tris-HCl pH 7.4, 25% Glycerol, 7.5 mM MgCl2, 750 mM NaCl, 5 mM Na3VO4; filter the 5×DP buffer through a 0.22 μm filter and store in aliquots at −80° C. The 5×DP buffer is diluted with H2O to 1×DP buffer containing 1 mM DTT and 25 mM NaF.
# (§4) Stock solutions of test compounds were prepared in DMSO. In a 96 well plate 30 μL solution of diluted test compounds at 5 mM in DMSO were prepared. Starting with this solution a 1:3 dilution series (9 steps) was prepared. For control experiments (no test compound) a buffer containing 2% DMSO was used.
# (§5) Molt4 cells (ATCC catalogue number CRL-1582) and Ramos cells (ATCC catalogue number CRL-1596) were grown in 1 L Spinner flasks (Integra Biosciences, #182101) in suspension in RPMI 1640 medium (Invitrogen, #21875-034) supplemented with 10% Fetal Bovine Serum (Invitrogen) at a density between 0.15×10^6 and 1.2×10^6 cells/mL. Cells were harvested by centrifugation, washed once with 1×PBS buffer (Invitrogen, #14190-094) and cell pellets were frozen in liquid nitrogen and subsequently stored at −80° C. Cells were homogenized in a Potter S homogenizer in lysis buffer: 50 mM Tris-HCl, 0.8% NP40, 5% glycerol, 150 mM NaCl, 1.5 mM MgCl2, 25 mM NaF, 1 mM sodium vanadate, 1 mM DTT, pH 7.5. One complete EDTA-free tablet (protease inhibitor cocktail, Roche Diagnostics, 1873580) per 25 mL buffer was added. The material was dounced 10 times using a mechanized POTTER S, transferred to 50 mL falcon tubes, incubated for 30 minutes on ice and spun down for 10 minutes at 20,000 g at 4° C. (10,000 rpm in Sorvall SLA600, precooled). The supernatant was transferred to an ultracentrifuge (UZ)-polycarbonate tube (Beckmann, 355654) and spun for 1 hour at 100.000 g at 4° C. (33.500 rpm in Ti50.2, precooled). The supernatant was transferred again to a fresh 50 mL falcon tube, the protein concentration was determined by a Bradford assay (BioRad) and samples containing 50 mg of protein per aliquot were prepared. The samples were immediately used for experiments or frozen in liquid nitrogen and stored frozen at −80° C.
# (§6) Cell lysate (approximately 50 mg protein per plate) was thawed in a water bath at room temperature and then stored on ice. To the thawed cell lysate 1×DP 0.8% NP40 buffer containing protease inhibitors (1 tablet for 25 mL buffer; EDTA-free protease inhibitor cocktail; Roche Diagnostics 1873580) was added in order to reach a final protein concentration of 10 mg/mL total protein. The diluted cell lysate was stored on ice. Mixed Molt4/Ramos lysate was prepared by combining one volume of Molt4 lysate and two volumes of Ramos lysate (ratio 1:2).
# (§7) To a 96 well filter plate (Multiscreen HTS, BV Filter Plates, Millipore #MSBVN1250) were added per well: 100 μL affinity matrix (3% beads slurry), 3 μL of compound solution, and 50 μL of diluted lysate. […]
# [2] = biological target: T2, JAK3 (Homo sapiens, UniProt P52333); assay: Kinobeads assay, JAK3 (dot blot detection); type: binding; conditions: mixed Molt4/Ramos lysate
# T2 construct: endogenous in cells; host or cells: Molt4 (ATCC CRL-1582) and Ramos (ATCC CRL-1596) cell lysate, mixed 1:2
# T2 sequence (P52333 1-1124): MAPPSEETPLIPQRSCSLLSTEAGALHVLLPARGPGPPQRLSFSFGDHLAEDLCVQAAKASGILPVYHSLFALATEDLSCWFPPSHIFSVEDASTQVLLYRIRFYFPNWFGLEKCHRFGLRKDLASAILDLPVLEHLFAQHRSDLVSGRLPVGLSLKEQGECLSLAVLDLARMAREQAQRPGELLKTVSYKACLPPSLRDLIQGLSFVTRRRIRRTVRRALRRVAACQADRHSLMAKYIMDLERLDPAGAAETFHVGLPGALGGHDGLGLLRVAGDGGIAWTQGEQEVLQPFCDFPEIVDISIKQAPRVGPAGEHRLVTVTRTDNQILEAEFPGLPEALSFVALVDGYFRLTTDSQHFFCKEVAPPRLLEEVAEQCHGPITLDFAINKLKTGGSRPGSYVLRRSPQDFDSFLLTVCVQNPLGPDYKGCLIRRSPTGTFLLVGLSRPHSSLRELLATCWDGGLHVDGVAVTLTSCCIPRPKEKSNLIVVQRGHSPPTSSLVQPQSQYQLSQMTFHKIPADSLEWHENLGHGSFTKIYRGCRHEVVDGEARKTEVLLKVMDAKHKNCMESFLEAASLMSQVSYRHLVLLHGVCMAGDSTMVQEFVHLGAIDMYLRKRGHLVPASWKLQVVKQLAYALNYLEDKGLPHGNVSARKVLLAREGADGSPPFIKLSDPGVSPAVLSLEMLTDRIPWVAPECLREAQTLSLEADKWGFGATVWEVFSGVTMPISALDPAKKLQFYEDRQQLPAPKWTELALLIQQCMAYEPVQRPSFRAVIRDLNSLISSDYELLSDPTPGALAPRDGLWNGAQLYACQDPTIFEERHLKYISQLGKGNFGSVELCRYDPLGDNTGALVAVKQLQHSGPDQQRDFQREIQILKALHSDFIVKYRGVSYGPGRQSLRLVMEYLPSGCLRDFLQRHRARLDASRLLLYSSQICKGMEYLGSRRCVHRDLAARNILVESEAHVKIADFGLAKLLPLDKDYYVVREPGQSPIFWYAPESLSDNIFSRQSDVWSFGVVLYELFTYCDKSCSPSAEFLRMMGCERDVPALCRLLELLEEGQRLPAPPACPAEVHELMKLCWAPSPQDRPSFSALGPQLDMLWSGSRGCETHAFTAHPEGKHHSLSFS
# Description: as §1, §2, §3, §4, §5, §6, §7
# [3] = test system: organ transplantation; conditions: Changelian et al., 2003; cited from earlier work
# [4] = test system: GVHD; conditions: reviewed in Cetkovic-Cvrlje and Ucken, 2004; cited from earlier work
# [5] = test system: spontaneous autoimmune diabetes; conditions: NOD mouse model of type I diabetes; cited from earlier work
# T1 sequence (O60674 whole entry): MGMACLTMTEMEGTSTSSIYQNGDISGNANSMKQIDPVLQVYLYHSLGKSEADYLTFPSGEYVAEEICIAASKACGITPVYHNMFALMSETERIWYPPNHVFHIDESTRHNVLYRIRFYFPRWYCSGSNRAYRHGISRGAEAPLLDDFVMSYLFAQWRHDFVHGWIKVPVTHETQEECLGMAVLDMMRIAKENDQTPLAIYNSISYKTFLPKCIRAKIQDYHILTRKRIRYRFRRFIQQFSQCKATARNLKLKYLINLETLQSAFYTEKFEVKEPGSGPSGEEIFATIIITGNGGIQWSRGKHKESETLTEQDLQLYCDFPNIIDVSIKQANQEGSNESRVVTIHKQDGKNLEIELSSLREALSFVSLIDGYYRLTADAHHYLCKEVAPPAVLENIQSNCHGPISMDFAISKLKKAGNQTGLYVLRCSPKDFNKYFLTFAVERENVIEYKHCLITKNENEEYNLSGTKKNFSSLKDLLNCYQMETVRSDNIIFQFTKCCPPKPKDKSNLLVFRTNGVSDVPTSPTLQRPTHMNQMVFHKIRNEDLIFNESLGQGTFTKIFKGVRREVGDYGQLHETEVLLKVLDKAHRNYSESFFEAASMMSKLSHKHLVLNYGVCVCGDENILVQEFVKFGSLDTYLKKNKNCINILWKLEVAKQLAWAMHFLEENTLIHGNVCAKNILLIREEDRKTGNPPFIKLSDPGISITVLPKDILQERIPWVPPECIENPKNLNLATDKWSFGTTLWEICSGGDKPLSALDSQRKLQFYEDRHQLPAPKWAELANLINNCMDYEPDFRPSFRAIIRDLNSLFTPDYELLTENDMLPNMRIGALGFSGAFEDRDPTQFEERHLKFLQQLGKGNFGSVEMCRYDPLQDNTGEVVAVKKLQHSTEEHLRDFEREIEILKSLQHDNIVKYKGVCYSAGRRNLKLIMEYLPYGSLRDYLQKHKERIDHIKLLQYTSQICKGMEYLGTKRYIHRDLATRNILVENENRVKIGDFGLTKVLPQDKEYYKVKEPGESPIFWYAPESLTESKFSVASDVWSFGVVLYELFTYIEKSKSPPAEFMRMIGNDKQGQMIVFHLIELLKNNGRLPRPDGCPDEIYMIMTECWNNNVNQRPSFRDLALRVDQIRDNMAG
Structure (SMILES),IC50 [1] [µM],IC50 [2] [µM],efficacy in an animal model of organ transplantation [3],severity of GVHD [4],prevention of spontaneous autoimmune diabetes development [5]
"Cc1ccc(C(=O)N(C)C)cc1Nc1ncc(Cl)c(Nc2ccccc2NS(C)(=O)=O)n1 [Example 24, 3-(5-chloro-4-(2-(methylsulfonamido)phenylamino)pyrimidin-2-ylamino)-N,N,4-trimethylbenzamide]",≥ 10,0.1 to 1,–,–,–
"C[C@@H]1CCN(C(=O)CC#N)C[C@@H]1N(C)c1ncnc2[nH]ccc12 [CP-690,550]",–,–,show efficacy,–,–
"COc1ccc(Nc2nc(Nc3cc(-n4cnnn4)ccc3C)ncc2Cl)c(NS(C)(=O)=O)c1 [Example 12, N-(2-(5-chloro-2-(2-methyl-5-(1H-tetrazol-1-yl)phenylamino)pyrimidin-4-ylamino)-5-methoxyphenyl)methanesulfonamide]",1 to 10,< 0.1,–,–,–
"COc1ccc(C(=O)N2CCCCC2)cc1Nc1ncc(Cl)c(Nc2ccccc2NS(C)(=O)=O)n1 [Example 19, N-(2-(5-chloro-2-(2-methoxy-5-(piperidine-1-carbonyl)phenylamino)pyrimidin-4-ylamino)phenyl)methanesulfonamide]",≥ 10,0.1 to 1,–,–,–
"CCS(=O)(=O)Nc1ccccc1Nc1nc(Nc2cc(C#N)ccc2OC)ncc1Cl [Example 25, N-(2-(5-chloro-2-(5-cyano-2-methoxyphenylamino)pyrimidin-4-ylamino)phenyl)ethanesulfonamide]",≥ 10,0.1 to 1,–,–,–
"COc1ccc(Nc2nc(Nc3cc(-n4cnnc4)ccc3C)ncc2Cl)c(NS(C)(=O)=O)c1 [Example 13, N-(2-(5-chloro-2-(2-methyl-5-(4H-1,2,4-triazol-4-yl)phenylamino)pyrimidin-4-ylamino)-5-methoxyphenyl)methanesulfonamide]",0.1 to 1,< 0.1,–,–,–
"COc1ccc(Nc2nc(Nc3cc(-n4cnnc4)ccc3OC)ncc2Cl)c(NS(C)(=O)=O)c1 [Example 11, N-(2-(5-chloro-2-(2-methoxy-5-(4H-1,2,4-triazol-4-yl)phenylamino)pyrimidin-4-ylamino)-5-methoxyphenyl)methanesulfonamide]",1 to 10,< 0.1,–,–,–
"CCNC(=O)c1ccc(OC)c(Nc2ncc(Cl)c(Nc3ccccc3NS(=O)(=O)CC)n2)c1 [Example 26, 3-(5-chloro-4-(2-(ethylsulfonamido)phenylamino)pyrimidin-2-ylamino)-N-ethyl-4-methoxybenzamide]",≥ 10,0.1 to 1,–,–,–
"Cc1ccc(C#N)cc1Nc1ncc(Cl)c(Nc2ccccc2NS(C)(=O)=O)n1 [Example 14, N-(2-(5-chloro-2-(5-cyano-2-methylphenylamino)pyrimidin-4-ylamino)phenyl)methanesulfonamide]",1 to 10,0.1 to 1,–,–,–
COc1cc2ncnc(Nc3ccc(O)cc3)c2cc1OC [JANEX-1],–,–,–,attenuate the severity of GVHD,prevent spontaneous autoimmune diabetes development
"CNC(=O)c1ccc(Cl)c(Nc2ncc(Cl)c(Nc3ccccc3NS(C)(=O)=O)n2)c1 [Example 16, 4-Chloro-3-(5-chloro-4-(2-(methylsulfonamido)phenylamino)pyrimidin-2-ylamino)-N-methylbenzamide]",≥ 10,0.1 to 1,–,–,–
"Cc1ccc(C#N)cc1Nc1ncc(Cl)c(Nc2cccc(F)c2NS(C)(=O)=O)n1 [Example 23, N-(2-(5-chloro-2-(5-cyano-2-methylphenylamino)pyrimidin-4-ylamino)-6-fluorophenyl)methanesulfonamide]",≥ 10,1 to 10,–,–,–

# More lines, main results first:
IC50 [1] [µM],IC50 [2] [µM],Structure (SMILES),efficacy in an animal model of organ transplantation [3],severity of GVHD [4],prevention of spontaneous autoimmune diabetes development [5]
–,< 0.1,COc1ccc(C(=O)NC(C)C)cc1Nc1ncc(Cl)c(Nc2ccccc2NS(C)(=O)=O)n1 [Example 18],–,–,–
≥ 10,< 0.1,"CNC(=O)c1ccc(OC)c(Nc2ncc(Cl)c(Nc3ccccc3NS(C)(=O)=O)n2)c1 [Example 17, 3-(5-chloro-4-(2-(methylsulfonamido)phenylamino)pyrimidin-2-ylamino)-4-methoxy-N-methylbenzamide]",–,–,–
–,< 0.1,COc1ccc(C(=O)NC2CC2)cc1Nc1ncc(Cl)c(Nc2ccccc2NS(C)(=O)=O)n1 [Example 20],–,–,–
≥ 10,0.1 to 1,"CCS(=O)(=O)Nc1ccccc1Nc1nc(Nc2cc(C(=O)NC)ccc2OC)ncc1Cl [Example 27, 3-(5-chloro-4-(2-(ethylsulfonamido)phenylamino)pyrimidin-2-ylamino)-4-methoxy-N-methylbenzamide]",–,–,–
–,< 0.1,CCNC(=O)c1ccc(OC)c(Nc2ncc(Cl)c(Nc3ccccc3NS(C)(=O)=O)n2)c1 [Example 21],–,–,–
